Experimental data published in US20240116926A1, “HETEROAROMATIC COMPOUNDS” (AstraZeneca AB, priority 2022, published 2024).
Converted amounts (≈) assume the structure as drawn.

Tests used:
TEAD4(217-434) = TEAD4(217-434) (Homo sapiens (Human), UniProt Q15561); experiment: TEAD4 FRET; type: binding; details: depalmitoylated, biotinylated TEAD4(217-434), FAM labelled Probe A, 120 min at 25° C.
MCF7-Tead cell line = experiment: TEAD reporter assay; type: cell-based; details: MCF7-Tead cells, luciferase activity after 24 hours
[1] = tested on: MCF7-Luciferase cell line; experiment: Control reporter (MCF7-Luciferase); type: cell-based; details: MCF7-Luciferase cells, luciferase activity after 24 hours
[2] = Solubility (thermodynamic, shake-flask); type: physicochemical; details: thermodynamic from solid; aqueous phosphate buffer (pH 7.4), 24 hours at 25° C.
Outline: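 Shake-flask method starting from 10 mM DMSO stocks, which are dried before use. Residue equilibrated 24 h at 25° C. in aqueous phosphate buffer, pH 7.4. Dissolved fraction separated and quantified by UPLC/MS/MS, with QC samples in each run.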

[3] = Protein binding measurements in human plasma (Hu PPB); type: in vitro ADME; details: equilibrium dialysis for 18 hours, fraction unbound
Experimental: The automated equilibrium dialysis assay in human plasma uses the RED (Rapid Equilibrium Dialysis) Device and sample handling. The assay generally runs over two to three days including delivery of results. After dialysis for 18 hours, plasma and buffer samples are prepared for analysis by liquid chromatography and mass spectrometry. Samples are generally tested in singlicates and quantified by LC/MSMS by using a 7-point calibration curve in plasma. The compounds are pooled together in plasma pools up to 10 compounds. Three reference compounds are used in each run, Propranolol, Metoprolol and Warfarin. Warfarin is used as a control in each pool and Propranolol and Metoprolol are placed randomly in each run. An in-house Excel macro is used for preparation of files for the robot and the mass spectrometer and is also used for the calculations of fraction unbound (fu %) in plasma.

Sequence of TEAD4(217-434) (Q15561 217-434): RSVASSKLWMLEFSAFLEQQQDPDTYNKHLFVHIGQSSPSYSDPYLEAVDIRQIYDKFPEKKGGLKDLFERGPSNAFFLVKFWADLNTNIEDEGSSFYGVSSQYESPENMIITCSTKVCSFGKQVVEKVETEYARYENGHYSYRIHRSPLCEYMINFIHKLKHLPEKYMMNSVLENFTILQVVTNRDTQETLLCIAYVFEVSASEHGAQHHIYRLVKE

Row | Compound | IC50 (TEAD4(217-434)) | IC50 (MCF7-Tead cell line) | IC50 [1] | solubility at 24 h [2] | Hu PPB (% free) [3]
1 | C=CC(=O)N1C[C@@H](CO)[C@H](Nc2ncc(-c3ccc(C(F)(F)F)cn3)c3ncccc23)C1 [Example 37, 1-((3R,4S)-3-(hydroxymethyl)-4-((8-(5-(trifluoromethyl)pyridin-2-yl)-1,6-naphthyridin-5-yl)amino)pyrrolidin-1-yl)prop-2-en-1-one] | 180 nM | 33 nM | > 31700 nM | 155 µM (≈ 68.7 µg/mL) | 17.0 % free
2 | C=CC(=O)NCC1(Nc2nnc(-c3ccc(C(F)(F)F)cc3)c3ccccc23)CCC1 [Example 42, N-((1-((4-(4-(trifluoromethyl)phenyl)phthalazin-1-yl)amino)cyclobutyl)methyl)acrylamide] | 70 nM | 672 nM | 19600 nM | 19 µM (≈ 8.1 µg/mL) | 0.8 % free
3 | C=CC(=O)N1CC[C@@H](c2nc(-c3ccc(C(F)(F)F)cc3)c3ccccc3n2)C1 (racemic) [Comparative Example C, 1-(3-{4-[4-(trifluoromethyl)phenyl]-2-quinazolinyl}-1-pyrrolidinyl)-2-propen-1-one, reference compound] | 55 nM | 260 nM | 22700 nM | 66 µM (≈ 26.2 µg/mL) | 1.1 % free
4 | C=CC(=O)N1C[C@@H](Nc2nnc(-c3ccc(C(F)(F)F)cc3)c3ccccc23)C[C@H]1CO [Example 48, 1-((2S,4S)-2-(hydroxymethyl)-4-((4-(4-(trifluoromethyl)phenyl)phthalazin-1-yl)amino)pyrrolidin-1-yl)prop-2-en-1-one] | 26 nM | 26 nM | 16100 nM | 2.4 µM (≈ 1.06 µg/mL) | 5.9 % free
